Reference: PMC9414874, “New Benzimidazoles Targeting Breast Cancer: Synthesis, Pin1 Inhibition, 2D NMR Binding, and Computational Studies” (Molecules, 2022)
Several values for one entry are separate records, joined by “and”; a condition that tells them apart may be missing. Equal values may be shown once. Read-outs that look alike come from different tables or passages of the source.

Experiments:
MCF-7 cells [1] = assay: Cell cycle distribution / DNA content by flow cytometry; assay type: cell-based, human; settings: MCF-7, 2 µM, 24 h
cytochrome C = assay: Cytochrome c level by ELISA in MCF-7 cells; assay type: cell-based, human
Procedure: (§1) Apoptosis can be excited by different stimuli via intrinsic and extrinsic pathways. It was reported that pin 1 inhibition involving apoptosis was performed via intrinsic mitochondrial l) pathways. […] The Bax/Bcl-2 ratio plays an important role in controlling the release of mitochondrial cytochrome c, after its release to the cytosol, caspase 9 is activated which can mediate downstream caspase activation including: caspase-3, caspase-6, and caspase-7 that obligated cells to apoptosis. Based on the above, we examined compound 8 capability to trigger intrinsic apoptotic pathways by affecting the expression of these markers in MCF-7 cells. […] In addition, it elevated the level of cytochrome C by about 2.49-fold compared to the control. […]
(§2) The level of BAX, Bcl-2, cytochrome C, and caspases 6, 7, and 9 were estimated using ELISA colorimetric kits; for BAX (DRG® Human Bax ELISA, EIA-4487), Bcl-2 (Zymed® Bcl-2 ELISA Kit), cytochrome c (Abcam cytochrome c Human ELISA kit, ab119521), caspase-6 (Human CASP6, ELISA Kit, MBS2533323), caspase-7 (Caspase-7 (Human) ELISA Kit, E4295-100), caspase-9 (DRG® Caspase-9 (human) ELISA, EIA-4860). […] This lysate was diluted in Standard Diluent Buffer all over the assay, then by using a microplate reader set at 450 nm, the optical density of each well was determined within 30 min to determine the human active BAX, Bcl-2, cytochrome C, caspases 6, 7 and 9 content.

BAX = BAX level by ELISA in MCF-7 cells; assay type: cell-based, human
Procedure: as §1, §2

Bcl-2 = Bcl-2 level by ELISA in MCF-7 cells; assay type: cell-based, human
Procedure: as §1, §2

caspase-9 = assay: Caspase-9 level by ELISA in MCF-7 cells; assay type: cell-based, human
Procedure: as §1, §2

MCF-7 = assay: MTT cytotoxicity assay against breast cancer cell line MCF-7; settings: for IC50: Homo sapiens
Procedure: All our newly synthesized hybrids were evaluated for their in vitro anticancer activity by the standard MTT assay against a breast cancer cell line (MCF-7). MTT is a calorimetric assay which relies on the ability of live tumor cells to reduce yellow MTT (3-(4,5-dimethylthiazol-2-yl)-2,5-diphenyltetrazolium bromide) to purple formazan by mitochondrial dehydrogenases, then added DMSO to dissolve the purple formazan and quantified by measuring absorbance at a certain wavelength. The dose response curve for compounds-treated vs. untreated cells is used to quantify the amount of formazan produced to report on the effectiveness of the compounds. […] Cell line: Mammary gland breast cancer (MCF-7). The cell line was obtained from ATCC via Holding company for biological products and vaccines (VACSERA), Cairo, Egypt. […] The cell line elucidated above were used to determine the inhibitory effects of compounds on cell growth using the MTT assay. […] After incubation, the cells were treated with different concentrations of compounds and incubated for an additional 24 h. After 24 h of drug treatment, 20 µL of MTT solution at 5 mg/mL was added and incubated for 4 h. […] The relative cell viability in percentage was calculated as (A570 of treated samples/A570 of the untreated sample) × 100 [48].

Pin1 = Pin1 (Homo sapiens, UniProt Q13526); assay: Pin1 inhibition assay (SensoLyte Green Pin1 Assay Kit); assay type: biochemical; design: purchased; settings: means ± SD of three experiments
Pin1, sequence (Q13526 whole entry): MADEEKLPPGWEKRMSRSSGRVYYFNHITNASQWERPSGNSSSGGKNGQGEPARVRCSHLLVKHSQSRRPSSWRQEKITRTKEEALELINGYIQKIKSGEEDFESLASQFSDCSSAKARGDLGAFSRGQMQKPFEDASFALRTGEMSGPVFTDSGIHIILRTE
Procedure: The ability of the synthesized compounds to inhibit the Pin1 activity was evaluated using the SensoLyte® Green Pin1 Assay Kit. This assay is based on using a fluorogenic substrate which was pretreated to convert it into the cis isomer. Pin1 can change this substrate into the trans isomer that is easily cleaved to generate a fluorescent signal.

ROS in MCF-7 cells = assay: Intracellular ROS accumulation assay (Human ROS ELISA Kit); assay type: cell-based
From the text: Reactive oxygen species (ROS) are chemically reactive species containing oxygen atoms including peroxides, superoxide, and hydroxyl radicals. They play an important role in the activation of apoptosis under physiological or pathological conditions. Direct or indirect ROS action can mediate the release of mitochondrial cytochrome c which trigger the induction of caspase. The intracellular level of ROS was estimated by The Human ROS ELISA Kit, which is based on standard sandwich enzyme-linked immunosorbent assay technology.
The Human ROS ELISA Kit is based on standard sandwich enzyme-linked immunosorbent assay technology. In which, the anti-Human ROS specific antibody has been pre-coated onto a 96-well plate and the human ROS present in the standards/samples bind to the capture antibody. Then biotinylated anti-Human ROS detection antibody is added to form an Ab-Ag-Ab sandwich. After a washing step, streptavidin-HRP is added and the unbound conjugate is removed with wash buffer. Subsequently, the addition of HRP substrate, TMB, results in the production of a blue-colored product that changes to yellow after the addition of acidic Stop Solution, and the density of yellow color is directly proportional to the amount of Human ROS captured on the plate. […] After that adding 90 μL TMB substrate, incubating 15–30 min at 37 °C, adding 50 μL Stop Solution and reading at 450 nm immediately. […]

MCF-7 cells [2] = assay: Annexin V-FITC/PI dual staining apoptosis assay; assay type: cell-based, human; settings: MCF-7, 2 µM, 24 h
Procedure: This assay was performed using a breast MCF-7 cell line to determine the percentage of apoptosis induced by compound 8, in which MCF-cells were incubated with compound 8 at 2 µM concentration for 24 h.
Apoptosis detection was performed by using Annexin V-FITC and PI apoptosis kit (eBioscience^TM, San Diego, CA, USA). Mcf cells were plated at a 600,000 cells/mL density onto a six well plate. After 24 h of incubation, the cells were treated with compound 8 at […]. Cells grown in media containing an equivalent amount of DMSO served as solvent control. After 24 h, the cells were stained with an Annexin V-FITC conjugate and propidium iodide (PI), and the percentage of apoptotic, necrotic, and living cells was determined according to the protocol provided by the Annexin V-FITC and PI apoptosis kit. The cells’ emitted fluorescence was analyzed by flow cytometry (NovoCyte, ACEA Biosciences Inc., San Diego, CA, USA) through the NovoExpress 1.3.0 software (ACEA Biosciences Inc., San Diego, CA, USA), acquiring 1 × 104 events per sample using the population plot “dot plot”, where each point corresponds to a single event with a specific fluorescence signal about the axes; Annexin V-FITC green fluorescence in abscissa vs. PE red fluorescence inordinate.

[3] = In vitro cytotoxicity against normal Human lung fibroblast (WI38) cell line; assay type: cell-based; settings: human, WI38 normal lung fibroblast cells
WI38 = assay: as above; assay type: cell-based
caspase-6 = assay: Caspase-6 level by ELISA in MCF-7 cells; assay type: cell-based, human; settings: mean ± SD of three experiments
Procedure: as §1, §2

caspase-7 = assay: Caspase-7 level by ELISA in MCF-7 cells; assay type: cell-based, human
Procedure: as §1, §2

In the case of `CN(C)c1ccc(C2CC(c3nc4cc(Cl)c(Cl)cc4[nH]3)=NO2)cc1` (stereo not shown) [Compound 8, 4-(3-(5,6-Dichloro-1H-benzo[d]imidazol-2-yl)-4,5-dihydroisoxazol-5-yl)-N,N-dimethylaniline], the melting point is reported as 155 to 158 °C, the “DNA Content %G0-G1” value (MCF-7 cells [1]) is reported as 44.29% and the “DNA Content %G2-M” value (MCF-7 cells [1]) is reported as 6.45%. The “DNA Content %Pre G1” value (MCF-7 cells [1]) was 38.25%, the “DNA Content %S” value (MCF-7 cells [1]) was 49.26% and the “Elevation of cytochrome C level compared to the control” value (cytochrome C) was “about 2.49 fold”. The Cytoc level (cytochrome C; mean ± SD of three experiments) was 0.62 ± 0.02 ng/mL, the “Increase of Bax level compared to the control” value (BAX) was 4.63 fold and the BAX level (BAX; mean ± SD of three experiments) was 268.71 ± 9.20 pg/mL. For the same compound, the “Decrease of Bcl-2 level compared to the control” value (Bcl-2) was 39%, the BCL-2 level (Bcl-2; mean ± SD of three experiments) was 2.81 ± 0.07 ng/mL and the “Enhancement of caspase 9 level compared to the control” value (caspase-9) was roughly 8.97 fold. For the same compound, the Casp.9 level (caspase-9; mean ± SD of three experiments) was 20.86 ± 0.73 ng/mL, the IC50 (MCF-7; MCF7, 24 h, read-out: In Vitro Cytotoxicity IC50 MCF-7, MTT assay, 24 h treatment) was 8.7 ± 0.6 µM and the IC50 (MCF-7; MCF7, read-out: IC50 against breast cancer cell line (MCF-7), MTT assay, section 2.2) was 8.76 µM. The “Cytotoxic activity class against MCF-7” value (MCF-7; class by IC50) was “very strong (1–10 (very strong))”, the IC50 (Pin1) was 0.00076 ± 4e-05 µM and the “ROS accumulation higher than the control cells” value (ROS in MCF-7 cells) was 1.258 fold. For the same compound, the “Apoptosis Early” value (MCF-7 cells [2]) was 3.7% and 3.71%, the “Apoptosis Late” value (MCF-7 cells [2]) was 15.32% and the “Apoptosis Total” value (MCF-7 cells [2]) was 38.25%. For the same compound, the “Increase of apoptosis (15.32%) over untreated cells” value (MCF-7 cells [2]) was 128 fold, the Necrosis (MCF-7 cells [2]) was 19.22% and the IC50 at 24 h [3] was 71.6 µM. For the same compound, the IC50 (WI38) was 71.6 ± 4 µM, the Casp.6 level (caspase-6) was 0.48 ± 0.02 ng/mL and the “Enhancement of caspase 7 level compared to the control” value (caspase-7) was roughly 9.06 fold. The Casp.7 level (caspase-7; mean ± SD of three experiments) was 4.17 ± 0.11 ng/mL.
